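Step 1: Grow cells in 96-well plates. Step 2: Expose to compound for 48 hours at 5 concentrations. Step 3: Interpolate endpoints linearly; if unreached, use highest concentration. GI50 marks 50% less growth. TGI: concentration producing complete growth inhibition.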
What was measured:
Experiment in all cases: DTP human tumour cell line panel, 48 h
SK-MEL-5 melanoma = tested on: SK-MEL-5 melanoma
TK-10 renal = tested on: TK-10 renal
COLO 205 colon = tested on: COLO 205 colon
SK-MEL-28 melanoma = tested on: SK-MEL-28 melanoma
KM12 colon = tested on: KM12 colon
M14 melanoma = tested on: M14 melanoma
SF-539 CNS = tested on: SF-539 CNS
NCI-H23 lung = tested on: NCI-H23 lung
DU-145 prostate = tested on: DU-145 prostate
OVCAR-3 ovarian = tested on: OVCAR-3 ovarian
MOLT-4 leukemia = tested on: MOLT-4 leukemia
SW-620 colon = tested on: SW-620 colon
HT29 colon = tested on: HT29 colon
HOP-92 NSCLC = tested on: HOP-92 NSCLC
A549 NSCLC = tested on: A549 NSCLC
CAKI-1 renal = tested on: CAKI-1 renal
SNB-19 CNS = tested on: SNB-19 CNS
SK-MEL-2 melanoma = tested on: SK-MEL-2 melanoma
EKVX NSCLC = tested on: EKVX NSCLC
786-0 renal = tested on: 786-0 renal
T-47D breast = tested on: T-47D breast
SNB-75 CNS = tested on: SNB-75 CNS
MDA-MB-231 breast = tested on: MDA-MB-231 breast
OVCAR-5 ovarian = tested on: OVCAR-5 ovarian
RPMI-8226 leukemia = tested on: RPMI-8226 leukemia
HL-60(TB) leukemia = tested on: HL-60(TB) leukemia
ACHN renal = tested on: ACHN renal
PC-3 prostate = tested on: PC-3 prostate
K-562 leukemia = tested on: K-562 leukemia
OVCAR-8 ovarian = tested on: OVCAR-8 ovarian
NCI-H460 lung = tested on: NCI-H460 lung
MCF7 breast = tested on: MCF7 breast
UACC-62 melanoma = tested on: UACC-62 melanoma
UO-31 renal = tested on: UO-31 renal
RXF 393 renal = tested on: RXF 393 renal
NCI-H522 lung = tested on: NCI-H522 lung
HCT-15 colon = tested on: HCT-15 colon
U251 CNS = tested on: U251 CNS
UACC-257 melanoma = tested on: UACC-257 melanoma
SF-295 CNS = tested on: SF-295 CNS
SR leukemia = tested on: SR leukemia
OVCAR-4 ovarian = tested on: OVCAR-4 ovarian
NCI/ADR-RES ovarian = tested on: NCI/ADR-RES ovarian
SK-OV-3 ovarian = tested on: SK-OV-3 ovarian
CCRF-CEM leukemia = tested on: CCRF-CEM leukemia
MDA-MB-435 = tested on: MDA-MB-435
IGROV1 ovarian = tested on: IGROV1 ovarian
HCT-116 colon = tested on: HCT-116 colon
LOX IMVI melanoma = tested on: LOX IMVI melanoma
SN12C renal = tested on: SN12C renal
HOP-62 NSCLC = tested on: HOP-62 NSCLC

COc1cc2c(cc1OC)-c1ncc3cc(OC)c(OC)cc3c1C2
GI50 (SK-MEL-5 melanoma): > 50 µM
TGI (SK-MEL-5 melanoma): > 50 µM
GI50 (TK-10 renal): > 50 µM
TGI (TK-10 renal): > 50 µM
GI50 (COLO 205 colon): > 50 µM
TGI (COLO 205 colon): > 50 µM
GI50 (SK-MEL-28 melanoma): > 50 µM
TGI (SK-MEL-28 melanoma): > 50 µM
GI50 (KM12 colon): > 50 µM
TGI (KM12 colon): > 50 µM
GI50 (M14 melanoma): > 50 µM
TGI (M14 melanoma): > 50 µM
GI50 (SF-539 CNS): > 50 µM
TGI (SF-539 CNS): > 50 µM
GI50 (NCI-H23 lung): > 50 µM
TGI (NCI-H23 lung): > 50 µM
GI50 (DU-145 prostate): > 50 µM
TGI (DU-145 prostate): > 50 µM
GI50 (OVCAR-3 ovarian): > 50 µM
TGI (OVCAR-3 ovarian): > 50 µM
GI50 (MOLT-4 leukemia): 25.4 µM
TGI (MOLT-4 leukemia): > 50 µM
GI50 (SW-620 colon): > 50 µM
TGI (SW-620 colon): > 50 µM
GI50 (HT29 colon): > 50 µM
TGI (HT29 colon): > 50 µM
GI50 (HOP-92 NSCLC): > 50 µM
TGI (HOP-92 NSCLC): > 50 µM
GI50 (A549 NSCLC): > 50 µM
TGI (A549 NSCLC): > 50 µM
GI50 (CAKI-1 renal): > 50 µM
TGI (CAKI-1 renal): > 50 µM
GI50 (SNB-19 CNS): > 50 µM
TGI (SNB-19 CNS): > 50 µM
GI50 (SK-MEL-2 melanoma): > 50 µM
TGI (SK-MEL-2 melanoma): > 50 µM
GI50 (EKVX NSCLC): > 50 µM
TGI (EKVX NSCLC): > 50 µM
GI50 (786-0 renal): > 50 µM
TGI (786-0 renal): > 50 µM
GI50 (T-47D breast): > 50 µM
TGI (T-47D breast): > 50 µM
GI50 (SNB-75 CNS): > 50 µM
TGI (SNB-75 CNS): > 50 µM
GI50 (MDA-MB-231 breast): > 50 µM
TGI (MDA-MB-231 breast): > 50 µM
GI50 (OVCAR-5 ovarian): > 50 µM
TGI (OVCAR-5 ovarian): > 50 µM
GI50 (RPMI-8226 leukemia): 14 µM
TGI (RPMI-8226 leukemia): > 50 µM
GI50 (HL-60(TB) leukemia): 16.2 µM
TGI (HL-60(TB) leukemia): > 50 µM
GI50 (ACHN renal): > 50 µM
TGI (ACHN renal): > 50 µM
GI50 (PC-3 prostate): > 50 µM
TGI (PC-3 prostate): > 50 µM
GI50 (K-562 leukemia): > 50 µM
TGI (K-562 leukemia): > 50 µM
GI50 (OVCAR-8 ovarian): > 50 µM
TGI (OVCAR-8 ovarian): > 50 µM
GI50 (NCI-H460 lung): > 50 µM
TGI (NCI-H460 lung): > 50 µM
GI50 (MCF7 breast): > 50 µM
TGI (MCF7 breast): > 50 µM
GI50 (UACC-62 melanoma): > 50 µM
TGI (UACC-62 melanoma): > 50 µM
GI50 (UO-31 renal): > 50 µM
TGI (UO-31 renal): > 50 µM
GI50 (RXF 393 renal): > 50 µM
TGI (RXF 393 renal): > 50 µM
GI50 (NCI-H522 lung): 24.5 µM
TGI (NCI-H522 lung): > 50 µM
GI50 (HCT-15 colon): > 50 µM
TGI (HCT-15 colon): > 50 µM
GI50 (U251 CNS): > 50 µM
TGI (U251 CNS): > 50 µM
GI50 (UACC-257 melanoma): > 50 µM
TGI (UACC-257 melanoma): > 50 µM
GI50 (SF-295 CNS): > 50 µM
TGI (SF-295 CNS): > 50 µM
GI50 (SR leukemia): 31.8 µM
TGI (SR leukemia): > 50 µM
GI50 (OVCAR-4 ovarian): > 50 µM
TGI (OVCAR-4 ovarian): > 50 µM
GI50 (NCI/ADR-RES ovarian): > 50 µM
TGI (NCI/ADR-RES ovarian): > 50 µM
GI50 (SK-OV-3 ovarian): > 50 µM
TGI (SK-OV-3 ovarian): > 50 µM
GI50 (CCRF-CEM leukemia): 25.9 µM
TGI (CCRF-CEM leukemia): > 50 µM
GI50 (MDA-MB-435): > 50 µM
TGI (MDA-MB-435): > 50 µM
GI50 (IGROV1 ovarian): 20.2 µM
TGI (IGROV1 ovarian): > 50 µM
GI50 (HCT-116 colon): > 50 µM
TGI (HCT-116 colon): > 50 µM
GI50 (LOX IMVI melanoma): > 50 µM
TGI (LOX IMVI melanoma): > 50 µM
GI50 (SN12C renal): > 50 µM
TGI (SN12C renal): > 50 µM

O=[N+]([O-])c1ccc(C2CC3(c4ccccc4)ON=C(c4ccccc4)N3c3ccccc3S2)cc1 (stereo unspecified)
GI50 (TK-10 renal): 0.0149 µM
TGI (TK-10 renal): 7.95 µM
GI50 (SF-539 CNS): 68.9 µM
GI50 (HOP-62 NSCLC): 58.9 µM
GI50 (HOP-92 NSCLC): 78.2 µM
GI50 (SK-MEL-2 melanoma): 40.3 µM
GI50 (SNB-75 CNS): 37.4 µM
GI50 (K-562 leukemia): 83.6 µM
GI50 (SF-295 CNS): 80.8 µM
GI50 (OVCAR-4 ovarian): 76.1 µM
GI50 (HCT-116 colon): 19.7 µM

Reference: PubChem BioAssay (NCI)
